Key:
[1] = test system: Hamster's ear sebaceous glands; assay: Topical antiandrogenic activity, histomorphometry of the ear sebaceous glands in the hamster; type: in vivo, Male Golden Syrian hamster; details: Mesocricetus auratus, 336 h, once daily, 14 days, sebaceous gland area, read-out: Antiandrogenic activity in Hamster's sebaceous glands Inh. Vs Cx (%); for inhibition in vivo at 0.001 mg: dose 1 μg applied topically on left ear of intact male hamster; for inhibition in vivo at 0.003 mg: dose 3 μg applied topically on left ear of intact male hamster; for inhibition in vivo at 0.01 mg: dose 10 μg applied topically on left ear of intact male hamster
Excerpt: Column 3 represents the dose of antiandrogenic compounds applied on the left ear of the intact male hamster.
Column 4 represents the relative inhibition in % of the area of the sebaceous gland of the left ear versus control hamster. Higher values approaching the effect of castration are preferable
The Antiandrogenic activity of antiandrogenic compounds has been measured using a Histomorphometry assay of the Ear Sebaceous Glands in the Hamster
1. Animals Male Golden Syrian, Hamster (SYR) of 110-120 g were obtained from Harlan Sprague Dawlay (Madison, USA) and housed up to 2 per cage in plastic cages in a temperature (22±3° C.) and light (12 h light/day, lights on at 7 h 15) in a controlled environment. The hamsters were fed with Certified Rodent Diet 5002 (pellet) and tap water ad libitum. The animals were acclimated for at least five days before the beginning of the study. Animals were randomly assigned to groups of eight hamsters. One group of hamsters was castrated under isoflurane-induced anesthesia on the day of dosing initiation (SD 1) and used as control group.
2. Treatments To evaluate the antiandrogenic activity, tested compounds were applied topically on the inner part of the left ear, once daily, for 14 days. Ten μL solution of acetone: ethanol: propylene Glycol (1:1:2; v:v:v) containing 0.1, 0.3 or 1.0 mg/mL of tested compound was carefully applied onto a region between the two cartilage ridges of the ventral surface of left pinna. For animals in the castrated and intact control groups ten-μL vehicle was applied onto the left ear. No solution will be applied on the right ear for any animals of the study.
3. Postmortem Observations and Measurements On Study Day 15, the hamsters were euthanized by cervical dislocation under isoflurane anesthesia. The left and right ears were collected attached together by the head skin, flat fixed on a paper and were immersed in 10% neutral buffered formalin. From the flat fixed ear and using paper puncture that makes a hole of 6 mm, the region where solution was applied was collected from each ear. Using a scalpel blade, the collected 6 mm round ear specimen was cut in the middle between the two cartilage ridges. The two equal parts of the ear round specimen were embedded in paraffin. After processing the tissue, the two parts were vertically embedded parallel to each other in a way that the flat 6 mm area was facing out. From each paraffin block, one section (5 μm thick) was cut and collected on a glass slide. Thus, each slide contained two elongated sections of 6 mm length. Slides were stained with hematoxylin and eosin.
4. Analysis of Sebaceous Gland Area Using the video camera and objective lens number X5 of the light microscope, the resulting field that appears on the screen has a length of 0.953 mm. From the glass slide, when we have examined the first 6 mm long section from the left to the right, the first and second fields were ignored and the third and fourth fields were captured for analysis by the image analyzer. Each field has the length of 0.953 mm. With the help of the screen mouse, the sebaceous glands within the whole field length (0.953mm) were marked. Also, an area with the length of the whole field and the height between stratum granulosum and the upper edge of the cartilage was drawn.
The image analyzer calculated the total area of the sebaceous glands (μm^2) in each examined field. We also obtained the area, which has the length of 0.953 mm and the height between stratum granulosum and the cartilage. In addition, the percentage of the area occupied by the glands was obtained. Thus, for each ear, two sections were cut and two fields from each section were analyzed. The total of the four readings was averaged and the mean standard of error calculated by the image analyzer. The results were expressed in μm^2 as the total surface of glands per field and also as percentage of the area occupied by the glands.

rat prostate = assay: Systemic antiandrogenic activity in immature male rats (castrated, DHT implant), prostate weight; details: po, 168 h, 0.5 mg/animal per os once daily 7 days, % efficacy relative to inhibition by flutamide, read-out: RAT (in vivo) (systemic) Prostate Inh. % inh. (0.5 mg, per os)
Experimental: Column 5 represents the % of antiandrogenic efficacy in rat prostate, relatively to the percentage of inhibition of flutamide calculated by the formula:
(§1) % efficacy versus Flu=100×% inhib (compound)/% inhib (Flu).
(§2) Where the percentage of inhibition (% inhib) is calculated by the following formula:
% lnhib=100−[W (compound)−W (control)/W (DHT)−W (control)]×100.
W is the weight of the prostate.
(§3) C Systemic antiandrogenic activity (immature male rats)
(§4) 1. Animals Immature male rats (Crl:CD(SD)Br) 22 to 24-day old were obtained from Charles-River, Inc. (St-Constant, Quebec, Canada) and housed up to 5 per cage in plastic bins in a temperature (23±1° C.)—and light (12 h light/day, lights on at 7h15)—controlled environment. The rats were fed rodent chow and tap water ad libitum. The day following their arrival, the animals were orchidectornized (CX) under Isoflurane anesthesia via scrotal route and randomly assigned to groups of 5 animals. One silastic implant of dihydrotestosterone (DHT; length of implant: 1 cm) was inserted subcutaneously in the dorsal area of animals at the time of orchidectomy. One group of 5 animals was CX only as control (no DHT implant inserted).
(§5) 2. Treatments To evaluate the antiandrogenic activity, tested compounds were administered orally by gavage once daily at a dose of 0.5 mg/animal for 7 days (SD 1 to 7). Compounds were solubilized (when possible) in dimethylsulfoxide (DMS, 10% final concentration) and administered as suspension in 0.4% methylcellulose. Rats in CX control and CX+DHT control groups received the vehicle alone during the 7-day period. One group of animals received the antiandrogen Flutamide as reference. The animals were killed by cervical dislocation under isoflurane anesthesia on the 8th morning following castration. The ventral prostate and seminal vesicles were rapidly dissected and weighed.
(§6) 3. Calculations and Statistical Analysis The percentage of inhibition (% inhib) is calculated by the following formula:
(§7) % Inhib=100−[W (compound)−W (control)/W (DHT)−W (control)]×100.
(§8) This percentage is reported as % of efficacy, relatively to the percentage of inhibition of flutaride calculated by the formula: % efficacy versus Flu=100×% inhib (compound)/% inhib (Flu).
(§9) W is the weight of the prostate or the seminal vesicle.

[2] = test system: Shionogi mouse mammary carcinoma cells; assay: In vitro androgenic/antiandrogenic activity, DHT-stimulated Shionogi cell number; type: cell-based; details: for IC50: Mus musculus, read-out: Shionogis (In Vitro) IC50(nM), inhibition of DHT-stimulated cell number, 10-12 days; for Shionogis (In Vitro) VS OH-FLU (ratio of Ki of hydroxyflutamide versus tested compound): OH-Flu = 1, DHT-stimulated cell number, higher values preferable
rat seminal vesicle = assay: Systemic antiandrogenic activity in immature male rats (castrated, DHT implant), seminal vesicle weight; details: po, 168 h, 0.5 mg/animal per os once daily 7 days, % efficacy relative to inhibition by flutamide, read-out: RAT (in vivo) (systemic) SV Inh % inh. (0.5 mg, per os)
Experimental: Column 6 represents the % of antiandrogenic efficacy on the rat seminal vesicle, relative to the percentage of inhibition by flutamide calculated by the formula:
as §1, §2, §7
W is the weight of the seminal vesicle.
as §3, §4, §5, §6, §8, §9

| Compound | inhibition in vivo at 0.001 mg [1] [%] | inhibition in vivo at 0.003 mg [1] [%] | inhibition in vivo at 0.01 mg [1] [%] | inhibition in vivo at 0.5 mg (rat prostate) [%] | IC50 [2] [nM] | Shionogis (In Vitro) VS OH-FLU (ratio of Ki of hydroxyflutamide versus tested compound) [2] | inhibition in vivo at 0.5 mg (rat seminal vesicle) [%] |
| --- | --- | --- | --- | --- | --- | --- | --- |
| CC(C)C#C[C@]1(O)CCC2C3CCc4c(C#N)cccc4C3CC[C@@]21C (some centres unmarked) [EM-3166] | 47.6 | 66.6 | 76.2 | 0 | 21.8 | 5.0 | 15 |
| CC[C@@]1(C)C[C@H]2[C@@H]3CCc4c(C#N)cccc4[C@H]3CC[C@]2(C)C1=O [EM-3180, 4-cyano-16α-methyl-16β-ethyl-1,3,5(10)-estratrien-17-one] | 57.1 | 90.5 | 95.2 | 0 | 35 | 2 | 0 |
| C#Cc1ccc2c(c1)CCC1C2CC[C@@]2(C)C1C[C@@H](C)[C@@H]2O (some centres unmarked) [EM-5035] | 3.7 | 11.1 | 51.9 | 11 | 66 | 1.6 | 4 |
| C[C@]12CCC3c4cccc(C#N)c4CCC3C1C[C@@H](C#CC1CC1)[C@@H]2O (some centres unmarked) [EM-3473] | 7.4 | 0 | 14.8 | 0 | 9.3 | 9 | 0 |
| CC1(C)CC2C3CCc4c(Cl)cccc4C3CC[C@]2(C)[C@H]1O (some centres unmarked) [EM-3415] | 0 | 11.1 | 44.4 | 0 | 26 | 2.5 | 0 |

Source: patent US20040224935A1, “Topical antiandrogenic steroids” (Endorecherche, Inc., priority 2003, published 2004)
